Activity calls are given as the source filed them. The calls are words filed in the database; no cut-off is given here.
Columns and labels:
SK-HEP1 = test: Antiproliferative activity against human SKHEP1 cells after 72 hrs by SRB assay; conditions: SK-HEP1, 72 h
MDA-MB-231 = test: Antiproliferative activity against human MDA-MB-231 cells after 72 hrs by SRB assay; conditions: MDA-MB-231, 72 h
SNU-638 = test: Antiproliferative activity against human SNU638 cells after 72 hrs by SRB assay; conditions: SNU-638, 72 h
HCT-116 = test: cells; conditions: Homo sapiens, HCT-116, 72 h
A549 = test: cells; conditions: Homo sapiens, A549, 72 h
Description: Antiproliferative activity against human A549 cells after 72 hrs by SRB assay

Homo sapiens [1] = species on record: Homo sapiens; test: Inhibition of PI3K in human HCT116 cells assessed as reduction in Akt phosphorylation at Ser473 residue at 0.5 uM after 24 hrs by Western blot analysis; format: cell-based
[2] = target: Phosphatidylinositol 4,5-bisphosphate 3-kinase catalytic subunit beta isoform (Homo sapiens, UniProt P42338); test: Inhibition of PI3Kbeta (unknown origin) using PIP2 as substrate by HTRF […] assay
Phosphatidylinositol 4,5-bisphosphate 3-kinase catalytic subunit beta isoform, sequence (P42338 whole entry, canonical isoform): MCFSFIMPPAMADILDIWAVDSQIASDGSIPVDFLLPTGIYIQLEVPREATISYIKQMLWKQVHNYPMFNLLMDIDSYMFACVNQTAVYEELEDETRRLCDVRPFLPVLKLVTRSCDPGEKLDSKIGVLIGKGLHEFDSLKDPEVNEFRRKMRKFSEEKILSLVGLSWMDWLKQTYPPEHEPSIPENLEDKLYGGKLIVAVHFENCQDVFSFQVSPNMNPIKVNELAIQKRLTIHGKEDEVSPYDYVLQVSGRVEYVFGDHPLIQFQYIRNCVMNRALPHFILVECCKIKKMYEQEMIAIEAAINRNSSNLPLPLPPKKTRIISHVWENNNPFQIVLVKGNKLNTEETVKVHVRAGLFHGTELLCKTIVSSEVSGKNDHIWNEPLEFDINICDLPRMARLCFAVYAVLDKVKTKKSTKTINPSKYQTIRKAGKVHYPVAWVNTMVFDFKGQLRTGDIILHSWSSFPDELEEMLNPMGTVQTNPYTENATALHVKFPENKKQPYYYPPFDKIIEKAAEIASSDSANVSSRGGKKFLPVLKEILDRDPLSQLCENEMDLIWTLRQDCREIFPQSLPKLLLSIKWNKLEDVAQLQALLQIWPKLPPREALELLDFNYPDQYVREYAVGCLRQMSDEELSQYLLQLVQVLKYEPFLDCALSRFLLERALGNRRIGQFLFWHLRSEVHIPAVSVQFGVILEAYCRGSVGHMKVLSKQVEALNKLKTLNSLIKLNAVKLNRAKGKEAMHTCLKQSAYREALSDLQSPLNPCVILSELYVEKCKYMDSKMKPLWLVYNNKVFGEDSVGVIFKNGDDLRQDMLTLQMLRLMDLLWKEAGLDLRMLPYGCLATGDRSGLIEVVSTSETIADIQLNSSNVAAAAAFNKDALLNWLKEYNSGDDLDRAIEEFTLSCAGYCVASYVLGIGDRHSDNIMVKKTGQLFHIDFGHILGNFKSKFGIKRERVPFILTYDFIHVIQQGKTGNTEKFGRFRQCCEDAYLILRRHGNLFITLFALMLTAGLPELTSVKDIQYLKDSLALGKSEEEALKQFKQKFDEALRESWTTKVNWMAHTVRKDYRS

[3] = target: Phosphatidylinositol 4,5-bisphosphate 3-kinase catalytic subunit gamma isoform (Homo sapiens, UniProt P48736); test: Inhibition of N-terminal His6-tagged recombinant full-length human PI3Kgamma expressed in baculovirus infected Sf21 insect cells using PIP2 as substrate by HTRF […] assay
Phosphatidylinositol 4,5-bisphosphate 3-kinase catalytic subunit gamma isoform, sequence (P48736 whole entry, canonical isoform): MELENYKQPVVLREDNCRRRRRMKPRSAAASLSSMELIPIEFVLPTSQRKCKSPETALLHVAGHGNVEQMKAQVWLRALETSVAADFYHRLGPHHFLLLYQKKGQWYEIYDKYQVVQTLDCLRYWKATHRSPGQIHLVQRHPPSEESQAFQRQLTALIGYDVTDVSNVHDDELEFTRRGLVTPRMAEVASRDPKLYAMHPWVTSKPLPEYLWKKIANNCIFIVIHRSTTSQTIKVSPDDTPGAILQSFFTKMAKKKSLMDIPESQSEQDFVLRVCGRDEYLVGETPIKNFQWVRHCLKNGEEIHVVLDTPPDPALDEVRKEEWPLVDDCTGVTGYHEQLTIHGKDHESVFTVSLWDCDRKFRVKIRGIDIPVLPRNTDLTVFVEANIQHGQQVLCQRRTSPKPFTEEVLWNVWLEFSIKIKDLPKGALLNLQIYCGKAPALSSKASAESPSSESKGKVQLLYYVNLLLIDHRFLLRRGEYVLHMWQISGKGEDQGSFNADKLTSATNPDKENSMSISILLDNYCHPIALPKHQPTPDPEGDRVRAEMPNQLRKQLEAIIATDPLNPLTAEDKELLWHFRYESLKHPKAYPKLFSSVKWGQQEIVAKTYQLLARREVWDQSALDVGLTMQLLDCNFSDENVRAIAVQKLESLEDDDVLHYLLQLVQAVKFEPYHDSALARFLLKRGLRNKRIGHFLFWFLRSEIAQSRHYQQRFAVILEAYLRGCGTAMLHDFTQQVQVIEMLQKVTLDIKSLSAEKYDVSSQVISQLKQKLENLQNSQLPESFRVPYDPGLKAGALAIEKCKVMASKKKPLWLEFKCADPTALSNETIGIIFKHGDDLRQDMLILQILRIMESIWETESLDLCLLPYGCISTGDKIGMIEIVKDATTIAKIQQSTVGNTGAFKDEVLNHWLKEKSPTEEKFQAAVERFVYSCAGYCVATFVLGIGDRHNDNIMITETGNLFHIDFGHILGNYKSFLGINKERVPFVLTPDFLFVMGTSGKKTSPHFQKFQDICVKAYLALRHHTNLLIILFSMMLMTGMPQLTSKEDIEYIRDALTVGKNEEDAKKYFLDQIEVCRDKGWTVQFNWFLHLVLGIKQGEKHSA

[4] = target: PI3-kinase p110-alpha/p85-alpha (Homo sapiens, UniProt P42336); test: Inhibition of N-terminal His6-tagged recombinant full-length human p110alpha/untagged recombinant full length human p85alpha expressed in baculovirus infected Sf21 insect cells using PIP2 as substrate by HTRF […] assay
PI3-kinase p110-alpha/p85-alpha, sequence (P27986 whole entry): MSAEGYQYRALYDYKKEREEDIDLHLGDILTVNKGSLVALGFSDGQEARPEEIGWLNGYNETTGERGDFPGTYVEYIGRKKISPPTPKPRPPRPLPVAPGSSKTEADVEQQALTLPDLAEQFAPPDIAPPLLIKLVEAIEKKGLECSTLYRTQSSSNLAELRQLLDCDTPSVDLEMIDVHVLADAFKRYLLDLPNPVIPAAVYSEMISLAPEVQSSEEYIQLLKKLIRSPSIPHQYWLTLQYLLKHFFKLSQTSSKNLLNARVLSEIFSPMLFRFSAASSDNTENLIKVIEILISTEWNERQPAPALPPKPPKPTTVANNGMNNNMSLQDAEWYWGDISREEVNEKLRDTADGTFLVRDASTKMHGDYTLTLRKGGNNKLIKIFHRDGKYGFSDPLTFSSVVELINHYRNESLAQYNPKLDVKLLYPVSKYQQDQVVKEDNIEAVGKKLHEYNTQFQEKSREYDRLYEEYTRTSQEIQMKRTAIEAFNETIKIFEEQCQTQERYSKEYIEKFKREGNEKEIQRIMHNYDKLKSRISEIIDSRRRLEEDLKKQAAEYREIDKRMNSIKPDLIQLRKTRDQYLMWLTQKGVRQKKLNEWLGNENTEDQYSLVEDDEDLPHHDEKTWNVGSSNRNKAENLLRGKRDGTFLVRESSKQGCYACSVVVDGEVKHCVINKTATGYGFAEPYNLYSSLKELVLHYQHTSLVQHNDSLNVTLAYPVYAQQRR
PI3-kinase p110-alpha/p85-alpha, sequence (P42336 whole entry): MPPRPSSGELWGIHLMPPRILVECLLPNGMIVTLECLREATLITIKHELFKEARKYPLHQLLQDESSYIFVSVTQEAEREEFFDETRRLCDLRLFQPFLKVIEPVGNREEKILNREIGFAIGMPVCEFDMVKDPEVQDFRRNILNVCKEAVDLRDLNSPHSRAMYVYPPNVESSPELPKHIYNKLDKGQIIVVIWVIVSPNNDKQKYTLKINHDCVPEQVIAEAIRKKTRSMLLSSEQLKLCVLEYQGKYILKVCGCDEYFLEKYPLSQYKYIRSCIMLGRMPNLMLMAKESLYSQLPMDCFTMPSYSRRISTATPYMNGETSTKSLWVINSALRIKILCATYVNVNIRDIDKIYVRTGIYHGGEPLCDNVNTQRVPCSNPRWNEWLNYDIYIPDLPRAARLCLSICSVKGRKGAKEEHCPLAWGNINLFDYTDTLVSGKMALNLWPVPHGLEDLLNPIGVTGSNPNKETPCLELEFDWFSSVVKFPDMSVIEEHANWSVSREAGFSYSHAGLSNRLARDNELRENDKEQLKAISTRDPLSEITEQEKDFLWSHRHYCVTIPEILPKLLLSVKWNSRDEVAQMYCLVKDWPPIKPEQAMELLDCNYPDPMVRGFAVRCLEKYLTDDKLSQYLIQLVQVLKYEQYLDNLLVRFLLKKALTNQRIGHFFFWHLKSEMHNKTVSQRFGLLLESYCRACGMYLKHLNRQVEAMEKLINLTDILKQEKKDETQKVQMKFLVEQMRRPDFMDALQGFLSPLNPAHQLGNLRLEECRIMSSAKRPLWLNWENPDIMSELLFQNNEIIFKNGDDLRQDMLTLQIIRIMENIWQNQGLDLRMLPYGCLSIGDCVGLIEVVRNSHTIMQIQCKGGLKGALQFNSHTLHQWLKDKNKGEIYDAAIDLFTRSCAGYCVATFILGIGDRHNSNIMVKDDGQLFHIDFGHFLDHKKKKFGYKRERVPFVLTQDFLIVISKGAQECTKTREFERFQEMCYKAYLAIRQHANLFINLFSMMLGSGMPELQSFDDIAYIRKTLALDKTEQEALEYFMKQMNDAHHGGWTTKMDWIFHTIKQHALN

HUVEC = test: Cytotoxicity against HUVEC after 72 hrs by SRB assay; conditions: Homo sapiens
[5] = target: PI3-kinase p110-delta/p85-alpha (Homo sapiens, UniProt O00329); test: Inhibition of p110delta/p85alpha (unknown origin) using PIP2 as substrate by HTRF […] assay; format: protein-complex assay
PI3-kinase p110-delta/p85-alpha, sequence (P27986 whole entry): as the sequence (P27986 whole entry) above
PI3-kinase p110-delta/p85-alpha, sequence (O00329 whole entry): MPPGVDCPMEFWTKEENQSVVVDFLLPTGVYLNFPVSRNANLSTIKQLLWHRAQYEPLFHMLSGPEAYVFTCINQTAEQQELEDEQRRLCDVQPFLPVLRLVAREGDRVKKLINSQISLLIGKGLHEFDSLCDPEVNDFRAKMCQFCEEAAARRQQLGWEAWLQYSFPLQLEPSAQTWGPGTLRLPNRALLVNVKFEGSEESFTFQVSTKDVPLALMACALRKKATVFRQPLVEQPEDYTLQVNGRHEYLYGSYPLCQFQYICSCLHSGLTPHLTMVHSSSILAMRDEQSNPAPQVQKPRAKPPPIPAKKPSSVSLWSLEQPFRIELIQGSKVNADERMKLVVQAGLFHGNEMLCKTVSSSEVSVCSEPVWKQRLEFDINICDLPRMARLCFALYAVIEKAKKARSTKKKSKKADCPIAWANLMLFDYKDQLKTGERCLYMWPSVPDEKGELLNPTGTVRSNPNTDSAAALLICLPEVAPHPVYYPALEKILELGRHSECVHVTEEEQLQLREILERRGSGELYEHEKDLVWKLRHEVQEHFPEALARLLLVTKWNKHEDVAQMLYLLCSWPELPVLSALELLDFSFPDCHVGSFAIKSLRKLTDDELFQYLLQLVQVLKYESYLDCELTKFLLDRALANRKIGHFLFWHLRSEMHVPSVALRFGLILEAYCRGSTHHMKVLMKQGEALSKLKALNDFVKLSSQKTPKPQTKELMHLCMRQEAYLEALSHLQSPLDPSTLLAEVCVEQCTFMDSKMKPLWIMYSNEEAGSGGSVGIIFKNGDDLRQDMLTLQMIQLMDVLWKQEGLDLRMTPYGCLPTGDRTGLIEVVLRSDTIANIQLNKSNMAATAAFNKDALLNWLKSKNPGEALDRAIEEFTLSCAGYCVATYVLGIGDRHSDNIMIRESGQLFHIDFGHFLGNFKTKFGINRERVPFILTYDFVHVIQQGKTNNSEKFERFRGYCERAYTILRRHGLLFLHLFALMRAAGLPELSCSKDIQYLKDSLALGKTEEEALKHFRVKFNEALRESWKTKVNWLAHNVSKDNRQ

Homo sapiens [6] = species on record: Homo sapiens; test: Inhibition of PI3K in human HCT116 cells assessed as reduction in Akt phosphorylation at Ser473 residue after 24 hrs by Western blot analysis; format: cell-based

`COc1ncc(-c2ccc3ncn(CCCn4cccn4)c(=O)c3c2)cc1NS(=O)(=O)c1ccc(F)cc1F` was tested, and the IC50 (SK-HEP1) was greater than 20000 nM, the IC50 (MDA-MB-231) was greater than 20000 nM and the IC50 (SNU-638) was 360 nM. The IC50 (HCT-116) was 4000 nM and the IC50 (A549) was 200 nM.
In the case of `CCOC(=O)Cn1cnc2ccc(-c3cnc(OC)c(NS(=O)(=O)c4ccc(F)cc4F)c3)cc2c1=O`, the IC50 (SK-HEP1) is reported as 1400 nM, the IC50 (MDA-MB-231) is reported as 120 nM and the IC50 (SNU-638) is reported as 300 nM. For the same compound, the IC50 (HCT-116) was 820 nM and the IC50 (A549) was 100 nM.
Compound `COc1ncc(-c2ccc3ncc(C(=O)N4CCC(O)CC4)n3c2)cc1NS(=O)(=O)c1ccc(F)cc1F` has an IC50 (SK-HEP1) of 790 nM, an IC50 (MDA-MB-231) of 630 nM and an IC50 (SNU-638) of 270 nM. For the same compound, the IC50 (HCT-116) was 490 nM and the IC50 (A549) was 480 nM.
`CCOC(=O)c1cnc2ccc(-c3cncc(NS(=O)(=O)c4ccccc4)c3)cn12` showed an IC50 (SK-HEP1) of 1090 nM, an IC50 (MDA-MB-231) of 760 nM and an IC50 (SNU-638) of 680 nM. For the same compound, the inhibition (Homo sapiens [1]) was “Active”, the IC50 [2] was 59 nM and the IC50 [3] was 104 nM. The IC50 (HCT-116) was 540 nM and the IC50 (A549) was 260 nM.
With `COc1ncc(-c2ccc3ncn(CCCCC(=O)N4CCOCC4)c(=O)c3c2)cc1NS(=O)(=O)c1ccc(F)cc1F` the IC50 (SK-HEP1) was 2250 nM, the IC50 (MDA-MB-231) was 1830 nM and the IC50 (SNU-638) was greater than 20000 nM. The IC50 (HCT-116) was 1110 nM and the IC50 (A549) was 2540 nM.
For `COc1ncc(-c2ccc3ncc(C(=O)NCCCN4CCOCC4)n3c2)cc1NS(=O)(=O)c1ccc(F)cc1F`, the IC50 [4] was 3.8 nM, the IC50 (SK-HEP1) was 400 nM and the IC50 (MDA-MB-231) was 300 nM. For the same compound, the IC50 (SNU-638) was 300 nM, the IC50 (HUVEC) was 3560 nM and the IC50 [2] was 106 nM. For the same compound, the IC50 [3] was 37 nM, the IC50 [5] was 101 nM and the IC50 (HCT-116) was 100 nM. The IC50 (A549) was 500 nM.
In the case of `CCOC(=O)c1cnc2ccc(-c3cnc(OC)c(NS(=O)(=O)c4ccc(F)cc4)c3)cn12`, the IC50 (SK-HEP1) is reported as greater than 20000 nM, the IC50 (MDA-MB-231) is reported as 530 nM and the IC50 (SNU-638) is reported as greater than 20000 nM. For the same compound, the IC50 (HCT-116) was 640 nM and the IC50 (A549) was 510 nM.
In the case of `CCOC(=O)c1cn2cc(-c3cnc(OC)c(NS(=O)(=O)c4ccc(F)cc4)c3)ccc2n1`, the IC50 (SK-HEP1) is reported as greater than 20000 nM, the IC50 (MDA-MB-231) is reported as greater than 20000 nM and the IC50 (SNU-638) is reported as greater than 20000 nM. For the same compound, the IC50 (HCT-116) was greater than 20000 nM and the IC50 (A549) was greater than 20000 nM.
`COc1ncc(-c2ccc3ncc(C(=O)NCc4ccncc4)n3c2)cc1NS(=O)(=O)c1ccc(F)cc1F` gave an IC50 (SK-HEP1) of 980 nM, an IC50 (MDA-MB-231) of 420 nM and an IC50 (SNU-638) of 490 nM. It also gave an IC50 (HCT-116) of 310 nM and an IC50 (A549) of 500 nM.
In the case of `COc1ncc(-c2ccc3ncc(C(=O)NCCN4CCOCC4)n3c2)cc1NS(=O)(=O)c1ccc(F)cc1F`, the inhibition (Homo sapiens [6]) is reported as “Dose-dependent effect”, the IC50 [2] is reported as 89 nM and the IC50 [3] is reported as 45 nM.
`CCOC(=O)c1cnc2ccc(-c3cnc(OC)c(NS(C)(=O)=O)c3)cn12` was tested, and the IC50 (SK-HEP1) was 170 nM, the IC50 (MDA-MB-231) was 190 nM and the IC50 (SNU-638) was 90 nM. For the same compound, the IC50 (HCT-116) was 320 nM and the IC50 (A549) was 230 nM.
Work on `CCCCS(=O)(=O)Nc1cc(-c2ccc3ncc(C(=O)OCC)n3c2)cnc1OC` yielded an IC50 (SK-HEP1) of 830 nM, an IC50 (MDA-MB-231) of 2320 nM and an IC50 (SNU-638) of 510 nM. For the same compound, the IC50 (HCT-116) was 4940 nM and the IC50 (A549) was 3560 nM.
`COc1ncc(-c2ccc3ncc(C(=O)NCCN(C)C)n3c2)cc1NS(=O)(=O)c1ccc(F)cc1F` showed an IC50 (SK-HEP1) greater than 20000 nM, an IC50 (MDA-MB-231) of 1800 nM and an IC50 (SNU-638) of 510 nM. It also gave an IC50 (HCT-116) of 140 nM and an IC50 (A549) of 400 nM.
`COc1ncc(-c2ccc3ncn(CCCN4CCOCC4)c(=O)c3c2)cc1NS(=O)(=O)c1ccc(F)cc1F` showed an IC50 [4] of 6.5 nM, an IC50 (SK-HEP1) of 600 nM and an IC50 (MDA-MB-231) of 500 nM. The IC50 (SNU-638) was 280 nM, the IC50 (HUVEC) was 8970 nM and the IC50 [2] was 108 nM. The IC50 [3] was 116 nM, the IC50 [5] was 69 nM and the IC50 (HCT-116) was 200 nM. It also gave an IC50 (A549) of 100 nM.
For `COc1ncc(-c2ccc3ncc(C(=O)N4CCC(OC(=O)c5ccccc5)CC4)n3c2)cc1NS(=O)(=O)c1ccc(F)cc1F`, the IC50 (SK-HEP1) was 2050 nM, the IC50 (MDA-MB-231) was 1450 nM and the IC50 (SNU-638) was 1390 nM. It also gave an IC50 (HCT-116) of 1230 nM and an IC50 (A549) of 1620 nM.
For `COc1ncc(-c2ccc3ncn(CCCn4ccccc4=O)c(=O)c3c2)cc1NS(=O)(=O)c1ccc(F)cc1F`, the IC50 (SK-HEP1) was 810 nM, the IC50 (MDA-MB-231) was 150 nM and the IC50 (SNU-638) was 2260 nM. For the same compound, the IC50 (HCT-116) was 1360 nM and the IC50 (A549) was 570 nM.
`COc1ncc(-c2ccc3ncn(CCCn4ccnc4)c(=O)c3c2)cc1NS(=O)(=O)c1ccc(F)cc1F` gave an IC50 (SK-HEP1) greater than 20000 nM, an IC50 (MDA-MB-231) of 11700 nM and an IC50 (SNU-638) of 250 nM. For the same compound, the IC50 (HCT-116) was 800 nM and the IC50 (A549) was 200 nM.
For `CCOC(=O)c1cnc2ccc(-c3cnc(OC)c(NS(=O)(=O)c4ccc(F)cc4F)c3)cn12`, the IC50 (SK-HEP1) was 300 nM, the IC50 (MDA-MB-231) was 120 nM and the IC50 (SNU-638) was 360 nM. It also gave an IC50 (HCT-116) of 90 nM and an IC50 (A549) of 300 nM.
For `CCOC(=O)c1cc2cc(-c3cnc(OC)c(NS(=O)(=O)c4ccc(F)cc4)c3)ccc2[nH]1`, the IC50 (SK-HEP1) was 300 nM, the IC50 (MDA-MB-231) was 150 nM and the IC50 (SNU-638) was 15900 nM. For the same compound, the IC50 (HCT-116) was 1300 nM and the IC50 (A549) was greater than 20000 nM.
With `COc1ncc(-c2ccc3ncc(C(=O)O)n3c2)cc1NS(=O)(=O)c1ccc(F)cc1F` the IC50 (SK-HEP1) was 750 nM, the IC50 (MDA-MB-231) was 370 nM and the IC50 (SNU-638) was 1460 nM. For the same compound, the IC50 (HCT-116) was 1310 nM and the IC50 (A549) was 1150 nM.
With `COc1ncc(-c2ccc3ncn(CCCCCC(=O)N4CCOCC4)c(=O)c3c2)cc1NS(=O)(=O)c1ccc(F)cc1F` the IC50 (SK-HEP1) was 11500 nM, the IC50 (MDA-MB-231) was 2150 nM and the IC50 (SNU-638) was 19700 nM. For the same compound, the IC50 (HCT-116) was 2230 nM and the IC50 (A549) was 7600 nM.
